Literature values as cited in article PMC7310027, “PET imaging of soluble epoxide hydrolase in non-human primate brain with [^18F]FNDP” (EJNMMI Research, 2020).

Details: cited from earlier work

Structure (SMILES): CC(=O)N1CCC(NC(=O)NC23CC4CC(CC(C4)C2)C3)CC1 [AR-9281, 1-(1-Acetyl-piperidin-4-yl)-3-adamantan-1-yl-urea]
- BBB permeability: BBB-permeable
